pKd: −log10 of the molar value. “And” between values parts separate entries of the source, which are not always exact repeats. Identical values can stand only once. Like-named read-outs stand apart in the source and are kept apart here.
Experiments:
PfcProRS = target: T1, PfcProRS (Plasmodium falciparum, UniProt Q8I5R7); assay type: binding; settings: for dose-response signal (normalized), SI Fig 8: single replicates
T1 construct: made in house; host or cells: E. coli SoluBL-21

HsProRS = HsProRS (Homo sapiens, UniProt P07814); assay: TR-FRET ligand displacement assay with tracer MAT379 (CoraFluor-1-Halo and anti-His6 antibody formats); assay type: binding; parameters: made in house; host or cells: E. coli SoluBL-21; settings: for Kd: 250 nM MAT379; for TR-FRET dose-response, normalized signal (SI Fig 11): individual replicates; for normalized TR-FRET signal (dose-response replicates): SI Fig 15
Chain of HsProRS (P07814 996-1512): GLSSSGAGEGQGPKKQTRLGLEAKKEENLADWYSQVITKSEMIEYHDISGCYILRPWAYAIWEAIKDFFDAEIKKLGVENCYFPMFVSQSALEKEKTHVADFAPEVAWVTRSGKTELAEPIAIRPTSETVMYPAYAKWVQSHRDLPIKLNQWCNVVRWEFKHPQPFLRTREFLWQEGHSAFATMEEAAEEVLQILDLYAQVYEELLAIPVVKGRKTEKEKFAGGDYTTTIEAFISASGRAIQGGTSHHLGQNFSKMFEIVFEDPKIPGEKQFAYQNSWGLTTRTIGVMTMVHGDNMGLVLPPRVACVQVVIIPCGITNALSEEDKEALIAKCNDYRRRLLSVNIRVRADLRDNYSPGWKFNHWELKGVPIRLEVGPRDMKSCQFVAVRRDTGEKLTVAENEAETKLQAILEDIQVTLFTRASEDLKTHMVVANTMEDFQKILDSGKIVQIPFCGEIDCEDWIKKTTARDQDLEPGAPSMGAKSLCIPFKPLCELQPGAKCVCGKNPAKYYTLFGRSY

T1 sequence (Q8I5R7 249-746): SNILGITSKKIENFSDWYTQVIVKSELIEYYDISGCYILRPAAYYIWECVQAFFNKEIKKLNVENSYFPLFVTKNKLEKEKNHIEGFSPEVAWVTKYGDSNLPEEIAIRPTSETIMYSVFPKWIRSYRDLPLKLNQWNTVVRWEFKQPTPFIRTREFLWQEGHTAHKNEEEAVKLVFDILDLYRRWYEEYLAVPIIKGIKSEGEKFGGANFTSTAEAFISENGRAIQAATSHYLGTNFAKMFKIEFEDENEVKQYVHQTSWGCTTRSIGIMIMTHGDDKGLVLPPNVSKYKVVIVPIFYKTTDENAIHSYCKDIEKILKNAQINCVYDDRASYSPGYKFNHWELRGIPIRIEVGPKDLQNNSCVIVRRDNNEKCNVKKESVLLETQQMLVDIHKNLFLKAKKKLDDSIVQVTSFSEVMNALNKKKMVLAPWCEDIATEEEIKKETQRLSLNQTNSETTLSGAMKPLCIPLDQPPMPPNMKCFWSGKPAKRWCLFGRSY

## O=C(NC1Cc2ccccc2C1)c1nccnc1NC(=O)C1CCCCC1 [compound 2, reference compound]
PfcProRS; Log[inhibitor] (M) -9.921
  dose-response signal (normalized), SI Fig 8: 1.02E+00 and 1.01E+00 and 9.29E-01 and 9.34E-01 and 1.07E+00 and 9.91E-01
PfcProRS; Log[inhibitor] (M) -10.097
  dose-response signal (normalized), SI Fig 8: 9.97E-01 and 1.11E+00 (2×) and 9.85E-01 and 1.06E+00 and 9.77E-01
PfcProRS; Log[inhibitor] (M) -10.585
  dose-response signal (normalized), SI Fig 8: 1.09E+00 and 8.10E-01 and 1.01E+00 and 1.14E+00 and 1.16E+00 and 1.07E+00
PfcProRS; SI Fig 16a, values on -log scale
  PfcProRS -- best Kd: 8.144
HsProRS; HsProRS (KD [nM]) + ATP, 500 μM ATP
  Kd: 954 nM
HsProRS; HsProRS (KD [nM]) −, absence of substrates
  Kd: 371 nM
HsProRS; HsProRS - best Kd, SI Fig 16a, values on -log scale
  pKd: 8.67
HsProRS; Log[inhibitor] (M) -5.000
  normalized TR-FRET ligand displacement signal, dose-response replicates (SI Fig 6): 1.03E-01 and 7.51E-02 and 1.04E-01
  TR-FRET dose-response, normalized signal (SI Fig 11): 8.64E-04 and 3.42E-02 and 3.40E-02
HsProRS; Log[inhibitor] (M) -5.301
  normalized TR-FRET ligand displacement signal, dose-response replicates (SI Fig 6): 1.90E-01 and 1.89E-01 and 1.86E-01
  TR-FRET dose-response, normalized signal (SI Fig 11): 7.30E-02 and 5.51E-02 and 3.97E-02
HsProRS; Log[inhibitor] (M) -5.602
  normalized TR-FRET ligand displacement signal, dose-response replicates (SI Fig 6): 3.08E-01 and 2.37E-01 and 3.84E-01
  TR-FRET dose-response, normalized signal (SI Fig 11): 1.33E-01 and 1.75E-01 and 1.42E-01
HsProRS; Log[inhibitor] (M) -5.903
  normalized TR-FRET ligand displacement signal, dose-response replicates (SI Fig 6): 6.24E-01 and 5.01E-01 and 5.97E-01
  TR-FRET dose-response, normalized signal (SI Fig 11): 2.61E-01 and 2.29E-01 and 2.70E-01
HsProRS; Log[inhibitor] (M) -6.204
  normalized TR-FRET ligand displacement signal, dose-response replicates (SI Fig 6): 7.10E-01 and 7.38E-01 and 7.90E-01
  TR-FRET dose-response, normalized signal (SI Fig 11): 4.85E-01 and 4.00E-01 and 4.14E-01
HsProRS; Log[inhibitor] (M) -6.505
  normalized TR-FRET ligand displacement signal, dose-response replicates (SI Fig 6): 9.53E-01 and 9.22E-01 and 9.58E-01
  TR-FRET dose-response, normalized signal (SI Fig 11): 5.65E-01 and 5.68E-01 and 5.80E-01
HsProRS; Log[inhibitor] (M) -6.806
  normalized TR-FRET ligand displacement signal, dose-response replicates (SI Fig 6): 8.96E-01 and 9.59E-01 and 9.45E-01
  TR-FRET dose-response, normalized signal (SI Fig 11): 6.77E-01 and 7.64E-01 and 7.01E-01
HsProRS; Log[inhibitor] (M) -7.107
  normalized TR-FRET ligand displacement signal, dose-response replicates (SI Fig 6): 1.10E+00 and 1.02E+00 and 1.05E+00
  TR-FRET dose-response, normalized signal (SI Fig 11): 8.54E-01 and 8.95E-01 and 8.55E-01
HsProRS; Log[inhibitor] (M) -7.408
  normalized TR-FRET ligand displacement signal, dose-response replicates (SI Fig 6): 1.04E+00
  TR-FRET dose-response, normalized signal (SI Fig 11): 8.94E-01 and 8.78E-01 and 9.74E-01
HsProRS; Log[inhibitor] (M) -7.709
  normalized TR-FRET ligand displacement signal, dose-response replicates (SI Fig 6): 9.76E-01 and 1.06E+00 and 1.03E+00
  TR-FRET dose-response, normalized signal (SI Fig 11): 9.26E-01 and 9.17E-01 and 9.24E-01
HsProRS; Log[inhibitor] (M) -8.010
  normalized TR-FRET ligand displacement signal, dose-response replicates (SI Fig 6): 9.42E-01 and 1.05E+00 and 9.60E-01
  TR-FRET dose-response, normalized signal (SI Fig 11): 9.79E-01 and 9.27E-01 and 9.78E-01
HsProRS; Log[inhibitor] (M) -8.311
  normalized TR-FRET ligand displacement signal, dose-response replicates (SI Fig 6): 1.02E+00 and 9.93E-01 and 1.06E+00
  TR-FRET dose-response, normalized signal (SI Fig 11): 9.15E-01 and 9.66E-01 and 9.82E-01
HsProRS; Log[inhibitor] (M) -8.612
  normalized TR-FRET ligand displacement signal, dose-response replicates (SI Fig 6): 9.95E-01 and 1.01E+00 and 1.07E+00
  TR-FRET dose-response, normalized signal (SI Fig 11): 9.61E-01 and 9.59E-01 and 9.62E-01
HsProRS; Log[inhibitor] (M) -8.913
  normalized TR-FRET ligand displacement signal, dose-response replicates (SI Fig 6): 1.02E+00 and 1.03E+00 and 9.75E-01
  TR-FRET dose-response, normalized signal (SI Fig 11): 9.90E-01 and 9.95E-01 and 9.69E-01
HsProRS; Log[inhibitor] (M) -9.214
  normalized TR-FRET ligand displacement signal, dose-response replicates (SI Fig 6): 9.83E-01 and 1.03E+00 and 1.00E+00
  TR-FRET dose-response, normalized signal (SI Fig 11): 9.62E-01 and 1.02E+00 and 1.04E+00
HsProRS; Log[inhibitor] (M) -4.99976
  normalized TR-FRET signal (dose-response replicates): 1.25E-01 and 2.68E-01 and 1.89E-01
HsProRS; Log[inhibitor] (M) -5.3009
  normalized TR-FRET signal (dose-response replicates): 2.77E-01 and 4.13E-01 and 4.17E-01
HsProRS; Log[inhibitor] (M) -5.60199
  normalized TR-FRET signal (dose-response replicates): 5.80E-01 and 6.20E-01 and 4.83E-01
HsProRS; Log[inhibitor] (M) -5.90248
  normalized TR-FRET signal (dose-response replicates): 7.22E-01 and 7.32E-01 and 6.10E-01
HsProRS; Log[inhibitor] (M) -6.20323
  normalized TR-FRET signal (dose-response replicates): 6.14E-01 and 7.99E-01 and 9.70E-01
HsProRS; Log[inhibitor] (M) -6.51347
  normalized TR-FRET signal (dose-response replicates): 9.27E-01 and 8.30E-01 and 1.04E+00
HsProRS; Log[inhibitor] (M) -6.79595
  normalized TR-FRET signal (dose-response replicates): 1.19E+00 and 9.68E-01 and 1.04E+00
HsProRS; Log[inhibitor] (M) -7.10794
  normalized TR-FRET signal (dose-response replicates): 9.40E-01 and 8.31E-01 and 8.97E-01
HsProRS; Log[inhibitor] (M) -7.40526
  normalized TR-FRET signal (dose-response replicates): 6.74E-01 and 8.60E-01 and 9.73E-01
HsProRS; Log[inhibitor] (M) -7.7137
  normalized TR-FRET signal (dose-response replicates): 9.61E-01 and 8.55E-01 and 9.51E-01
HsProRS; Log[inhibitor] (M) -8
  normalized TR-FRET signal (dose-response replicates): 9.74E-01 and 7.58E-01 and 8.90E-01
HsProRS; Log[inhibitor] (M) -8.331
  normalized TR-FRET signal (dose-response replicates): 8.05E-01 and 1.09E+00 and 1.00E+00
HsProRS; Log[inhibitor] (M) -8.57403
  normalized TR-FRET signal (dose-response replicates): 1.32E+00 and 1.15E+00 and 1.19E+00
HsProRS; Log[inhibitor] (M) -8.87506
  normalized TR-FRET signal (dose-response replicates): 9.35E-01 and 9.99E-01 and 1.09E+00
HsProRS; Log[inhibitor] (M) -9.17609
  normalized TR-FRET signal (dose-response replicates): 1.03E+00 and 1.04E+00 and 1.09E+00

— paper PMC9403976, “Elucidating the path to Plasmodium prolyl-tRNA synthetase inhibitors that overcome halofuginone resistance” (Nature Communications, 2022)
